Experimental findings from patent US20200237852A1, “Small Molecule Enhancers of Paneth Cell Function and Differentiation” (Massachusetts Institute of Technology, priority 2019, published 2020) are described below.

In test [1] the test system is ISC-enriched organoids in ENR+CD. Briefly: 384-well secondary screen in ENR+CD incl. early vs. full treatment, secreted LYZ (LYZ.NS, LYZ.S). In kind it is cell-based, C57BL/6 mice. The conditions noted are these: ENR+CD, across all doses. An excerpt: We again assessed treatment effect size with replicate SSMD (using a difference between well replicates and median assay value for all same-plate control wells—see Materials and Methods, High-throughput screening: 384-well secondary screen format and early vs. full treatment analysis) and hits were considered statistically validated by an SSMD greater than the false-positive-derived cutoffs (βα1=0.89 for 8 replicates with alpha=0.05; see Materials and Methods, High-throughput screening: 384-well secondary screen format and early vs. full treatment analysis) for both LYZ.NS and LYZ.S assays (FIG. 7A). Per this new cutoff, 10 dose-treatment combinations corresponding to 7 small molecules were chosen as hits, with every passing dose-treatment having a greater than 0 ATP effect size.
For 384-well plate high-throughput screening, ISC-enriched organoids were passaged and split to single cells with TyrpLE (Thermo Fisher Scientific) and cultured for 2-3 days in ENR+CVY prior to transfer to a “2.5-D” 384-well plate culture system. To prepare for “2.5D” plating, cell-laden Matrigel and media were homogenized via mechanical disruption and centrifuged at 300 g for 3 min at 4° C. Supernatant was removed and the pellet washed and spun in basal culture medium repeatedly until the cloudy Matrigel above the cell pellet was gone. On the final wash, pellet was resuspended in basal culture medium, the number of organoids counted, and the cell pellet was resuspended in ENR+CD medium at ˜7 clusters/μL. 384-well plates were first filled with 10 μL of 70% Matrigel (30% basal media) coating in each well using a Tecan Evo 150 Liquid Handling Deck, and allowed to gel at 37° C. for 5 minutes. Then 30 μL of cell-laden media was plated at the center of each well of 384-well plates with the liquid handler, and the plates were spun down at 50 g for 1 minute to embed organoids on the Matrigel surface. Compound libraries were pinned into prepped cell plates using 50 nL pins into 30 μL media/well. Cells were cultured at 37° C. with 5% CO2 for six days in ENR+CD medium supplemented with the tested compounds with a media change at three days. On day six, lysozyme secretion and cell viability were assessed using Lysozyme Assay Kit (EnzChek) and CellTiter-Glo 3D Cell Viability Assay (Promega), respectively, according to the manufacturers' protocols. Briefly, screen plates were washed 3× with FluoroBrite basal media (2 mM GlutaMAX and 10 mM HEPES in FluoroBrite DMEM (Thermo Fisher Scientific)) using a BioTek 406 plate washer with 10 min incubations followed by a 1 min centrifugation at 200 g to settle media between washes. After removal of the third wash, 30 μL of non-stimulated FluoroBrite basal media was added to each screen well using a Tecan Evo 150 Liquid Handling Deck from a non-stimulated treatment master plate, and plates were incubated for 30 min at 37° C. After 30 minutes, the top 15 μL of media from each well of the screen plate was transferred to a non-stimulated LYZ assay plate containing 15 μL of 20× DQ LYZ assay working solution using a Tecan Evo 150 Liquid Handling Deck. The non-stimulated LYZ assay plate was covered, shaken for 10 min, incubated for 50 min at 37° C., then fluorescence measured (shake 10 s; […]/518 nm) using a Tecan M1000 Plate Reader. After the media transfer to the non-stimulated LYZ assay plate, the remaining media was removed from the screen plate and 30 μL of Stimulated FluoroBrite basal media (supplemented with 10 μM CCh) was added to each screen well using a Tecan Evo 150 Liquid Handling Deck from a stimulated treatment master plate, and plates were incubated for 30 min at 37° C. After 30 minutes, the top 15 μL of media from each well of the screen plate was transferred to a stimulated LYZ assay plate containing 15 μL of 20× DQ LYZ assay working solution using a Tecan Evo 150 Liquid Handling Deck. […]

The subject of test [2] is conventional organoid (ENR). Briefly: 384-well screen in conventional organoid (ENR), secreted LYZ (LYZ.NS, LYZ.S). In kind it is cell-based, C57BL/6 mice. The conditions noted are these: 6-day ENR differentiation compared with ENR+CD.
Test [3] has as its system 6-day ENR+CD cells. In words: Long-term (48-hour) modulators of basal and CCh-induced LYZ secretion. The conditions noted are these: 48-hour treatment, CCh-induced secretion over 3 hours on day 6. In kind it is cell-based, murine. An excerpt: (§1) We next sought to profile potential long-term modulators of differentiated PC survival and antimicrobial secretion, as well as gauge the interaction between long-term modulators and short-term induced secretion (via CCh). To accomplish this, we employed a similar set up as in the short-term experiment, with the exception that upon plating day 4 ENR+CD cells we additionally supplemented in either MDP, LPS, TNF-α, or IFN-γ for the additional 2 days in culture and assayed all conditions for both basal and CCh-induced LYZ secretion over 3 hours on day 6 of differentiation (FIG. 3A). […] Additionally, we see that the long-term addition reduces CCh-induced secretory function relative to the untreated control for all agents (FIG. 3D).
(§2) Small intestinal crypts were isolated from C57BL/6 mice of both sexes, aged between three to six months in all experiments. Crypts were then cultured in a Matrigel culture system. Briefly, crypts were resuspended in basal culture medium (Advanced DMEM/F12 with 2 mM GlutaMAX and 10 mM HEPES; Thermo Fisher Scientific) at a 1:1 ratio with Corning™ Matrigel™ Membrane Matrix—GFR (Fisher Scientific) and plated at the center of each well of 24-well plates. Following Matrigel polymerization, 500 μL of small intestinal crypt culture medium (basal media plus 100× N2 supplement, 50×B27 supplement; Life Technologies, 500× N-acetyl-L-cysteine; Sigma-Aldrich) supplemented with growth factors EGF—E (50 ng/mL, Life Technologies), Noggin—N (100 ng/mL, PeproTech) and R-spondin 1—R (500 ng/mL, PeproTech) and small molecules CHIR99021—C (3 μM, LC Laboratories) and valproic acid—V (1 mM, Sigma-Aldrich) was added to each well. ROCK inhibitor Y-27632—Y (10 μM, R&D Systems) was added for the first 2 days of culture. Cells were cultured at 37° C. with 5% CO2, and cell culture medium was changed every other day. After 6 days of culture, crypt organoids were isolated from Matrigel by mechanical dissociation. To expand enriched ISCs (ENR+CV/Y) or Paneth Cells (ENR+CD), organoids were cultured in 24-well plates, suspended in 40 uL 3-D gels (50-50 GFR MATRIGEL®, Basal culture media), with 500 uL of crypt media supplemented with necessary growth factors and small molecules. ROCK inhibitor (Y) was added for the first two days of ISC culture following reconstitution from cryopreservation or trypLE passaging to single cells. Cell culture medium was changed every other day. After 4 days of culture in ENR+CV, cell clusters were differentiated to PCs under the ENR+CD condition for 96-well short and long-term screens. For 384-well differentiation screens, 4-day ENR+CV clusters were passaged to single cells using trypLE, replated and expanded another 3 days in 3-D ENR+CVY and then passaged directly into screens.
For 96-well plate high-throughput screening, 4-day differentiated (ENR+CD) cell clusters in 3D Matrigel were transferred to a “2.5-D” 96-well plate culture system. Briefly, cell culture gel and medium were homogenized via mechanical disruption and centrifuged at 300 g for 3 min at 4° C. […] On the last repeat, pellet was resuspended in basal culture medium, the number of cell clusters counted, and centrifuged at 300 g for 3 min at 4° C. […] At end time points (following 2 days in culture and 3 hours of stimulation), lysozyme secretion and cell viability were assessed using Lysozyme Assay Kit and CellTiter-Glo 3D Cell Viability Assay (Promega), respectively, according to the manufacturers' protocols. […]

Test [4] relates to 6-day ENR+CD cells. In words: Cell pellet ATP after long-term (48-hour) treatment. Type of test: cell-based, murine. The conditions noted are these: low doses.
Excerpt: as §1
as §2, with “ROCK inhibitor (Y) was added for the first two days of ISC culture following reconstitution from cryopreservation or trypLE passaging to single cells. Cell culture medium was changed every other day. After 4 days of culture in ENR+CV, cell clusters were differentiated to PCs under the ENR+CD condition for 96-well short and long-term screens. For 384-well differentiation screens, 4-day ENR+CV clusters were passaged to single cells using trypLE, replated and expanded another 3 days in 3-D ENR+CVY and then passaged directly into screens.” left out
For 96-well plate high-throughput screening, 4-day differentiated (ENR+CD) cell clusters in 3D Matrigel were transferred to a “2.5-D” 96-well plate culture system. […] On the last repeat, pellet was resuspended in basal culture medium, the number of cell clusters counted, and centrifuged at 300 g for 3 min at 4° C. […] At end time points (following 2 days in culture and 3 hours of stimulation), lysozyme secretion and cell viability were assessed using Lysozyme Assay Kit and CellTiter-Glo 3D Cell Viability Assay (Promega), respectively, according to the manufacturers' protocols. […]

For the compound `COc1ccc(C2CNC(=O)C2)cc1OC1CCCC1` (centres unmarked) [Rolipram], the “ATP-normalized LYZ assays (LYZ.NS/ATP, LYZ.S/ATP), early versus full treatment” value in test [1] is reported as “do not see a trend or significant difference”.

For the compound `CCc1c(C(=O)C(N)=O)c2c(OCC(=O)O)cccc2n1Cc1ccccc1` [Varespladib], in test [2], the “mean fold change in LYZ.NS/ATP and LYZ.S/ATP (LYZ secretion per cell) in ENR” value was “minimal effects in the ENR-only system”. Turning to TNF-α, in the test with 6-day ENR+CD cells [3], the “effect size of reduction of CCh-induced secretory function relative to untreated control” value is “weak”. In the test with 6-day ENR+CD cells [4], the “SSMD effect size of increase in cell number (ATP)” value was “weak” and the “change in cell number (ATP rel. to ENR+CD)” value is “apparent increases in cell number”.
